Values after ≈ are worked out from the molar mass of the structure shown. Values joined by “and” are separate entries in the source; they are usually repeats but may differ in a detail not shown here. Identical values can stand only once. Like-named read-outs stand apart in the source and are kept apart here.
What was measured:
[1] = MTT cytotoxicity evaluation; conditions: human, Cytotoxicity CC50 TZM-bl Cell Line, MTT assay
[2] = system: HIV-1 subtype B (NL4.3 virus); experiment: Luciferase-based antiviral assay in TZM-bl cells; conditions: for SI (CC50/IC50): selectivity index, TZM-bl CC50 / HIV-1 IC50
Mtb = system: Mtb; parameters: method as in PMID 21489660; conditions: antitubercular activity; cited from earlier work
[3] = biological target: HIV reverse transcriptase; parameters: method as in PMID 30370848; conditions: cited from earlier work
[4] = system: Mtb H37Rv (ATCC 27294) strain; experiment: Antimycobacterial micro broth dilution (resazurin) assay; type: cell-based, Mycobacterium tuberculosis; conditions: 7 days, read-out: Anti-Mtb H37Rv MIC90
TZM-bl cell line = experiment: MTT cytotoxicity evaluation; conditions: read-out: Cytotoxicity CC50 TZM-bl Cell Line; MTT assay
[5] = Human immunodeficiency virus 1, TZM-bl, 48 h, read-out: Anti-HIV HIV-1 Subtype B IC50, NL4.3 virus in TZM-bl cells, 48 h, luciferase
[6] = Mycobacterium tuberculosis, 168 h
[7] = read-out: Anti-HIV HIV-1 Subtype B IC50, NL4.3 virus in TZM-bl cells, 48 h, luciferase

For `Cc1cn([C@H]2C[C@H](N=[N+]=[N-])[C@@H](CO)O2)c(=O)[nH]c1=O` [AZT, azidothymidine, reference compound], which CC50 [1] is on record?
The CC50 was 1120 µM.

And the IC50 [2, 5]?
The IC50 was 0.0909 µM.

What about the “SI (CC50/IC50)” value [2] of the same compound?
Its value is 12,349 and 12,349.59.

With `COc1ccc2nccc(-n3cc(CNC(C)=O)nn3)c2c1` [Compound 1] as the compound, how does the MIC (Mtb) read?
The MIC was 0.625 µg/mL (≈ 2.1 µM).

Which MIC (Mtb) does the source give for `COc1ccc(S(=O)(=O)NCc2cn(-c3ccnc4ccc(OC)cc34)nn2)cc1` [Compound 2] here?
Its MIC is 0.625 µg/mL (≈ 1.47 µM).

With `COc1ccc2nccc(-n3cc(CN4CCN(C(C)=O)CC4)nn3)c2c1` [Compound 3] as the compound, how does the MIC (Mtb) read?
The MIC was 0.625 µg/mL (≈ 1.71 µM).

For `O=C1O[C@](C#CC2CC2)(C(F)(F)F)c2ccccc2N1Cc1cn(-c2ccnc3cc(Cl)ccc23)nn1` [Compound 5], which IC50 [3] is on record?
Its IC50 is 0.8 µM.

For `[N-]=[N+]=Nc1ccnc2cc(Cl)ccc12` [Compound 7, 4-azido-7-chloroquinoline], which MIC90 [4, 6] is on record?
The MIC90 was 19.1 µM (≈ 3.91 µg/mL).

For `C#CCNc1ccccc1` [Compound 10a, N-2-propyl-1-yl-benzanamine], which MIC90 [4, 6] is on record?
Its MIC90 is 3810 µM (≈ 500 µg/mL).

Which MIC90 [4, 6] does the source give for `Clc1ccc2c(-n3cc(CNc4ccccc4)nn3)ccnc2c1` [Compound 11a] here?
Its MIC90 is 187 µM (≈ 62.6 µg/mL).

What about the CC50 [1] of the same compound?
Its CC50 is greater than 100 µM.

What about the CC50 (TZM-bl cell line) of the same compound?
Its CC50 is 177 µM.

And the IC50 [2, 5]?
Its IC50 is 3.01 µM.

And the “SI (CC50/IC50)” value [2]?
Its value is 58.75.

With `Clc1ccc2c(-n3cc(CNc4ccc(Br)cc4)nn3)ccnc2c1` [Compound 11b, [1-(7-Chloro-4-quinolinyl)-1H-1,2,3-triazole-4-methyl]-4-bromoaniline] as the compound, how does the MIC90 [4, 6] read?
Its MIC90 is 1210 µM (≈ 502 µg/mL).

And the CC50 [1]?
The CC50 was 0.248 µM.

And the IC50 [2, 5]?
Its IC50 is 124 µM.

And the “SI (CC50/IC50)” value [2]?
Its value is 1.994 × 10^−3.

Which MIC90 [4, 6] does the source give for `Clc1ccc2c(-n3cc(CNc4ccc(I)cc4)nn3)ccnc2c1` [Compound 11c, [1-(7-Chloro-4-quinolinyl)-1H-1,2,3-triazole-4-methyl]-4-iodoaniline] here?
The MIC90 was 1080 µM (≈ 501 µg/mL).

And the CC50 [1]?
Its CC50 is 157 µM.

And the IC50 [2, 5]?
The IC50 was 23.2 µM.

What about the “SI (CC50/IC50)” value [2] of the same compound?
Its value is 6.76.

Which MIC90 [4, 6] does the source give for `Fc1ccc(NCc2cn(-c3ccnc4cc(Cl)ccc34)nn2)cc1` [Compound 11d, [1-(7-Chloro-4-quinolinyl)-1H-1,2,3-triazole-4-methyl]-4-flouroaniline] here?
The MIC90 was 177 µM (≈ 62.5 µg/mL).

What about the CC50 [1] of the same compound?
The CC50 was 1320 µM.

What about the “Anti-HIV HIV-1 Subtype B IC50” value ([2]; NL4.3 virus in TZM-bl cells, 48 h, luciferase) of the same compound?
The value was “DNC *”.

Which MIC90 [4, 6] does the source give for `Clc1cccc(NCc2cn(-c3ccnc4cc(Cl)ccc34)nn2)c1` [Compound 11e, [1-(7-Chloro-4-quinolinyl)-1H-1,2,3-triazole-4-methyl]-3-chloroaniline] here?
Its MIC90 is 169 µM (≈ 62.5 µg/mL).

What about the CC50 [1] of the same compound?
The CC50 was 835 µM.

And the IC50 [2, 5]?
Its IC50 is 714 µM.

What about the “SI (CC50/IC50)” value [2] of the same compound?
The value was 1.17.

For `FC(F)(F)c1ccccc1NCc1cn(-c2ccnc3cc(Cl)ccc23)nn1` [Compound 11g, [1-(7-Chloro-4-quinolinyl)-1H-1,2,3-triazole-4-methyl]-2-triflouromethylaniline], which MIC90 [4, 6] is on record?
Its MIC90 is 155 µM (≈ 62.6 µg/mL).

And the IC50 [2, 5]?
Its IC50 is 0.388 µM.

And the IC50 [2, 7]?
Its IC50 is 0.388 µM.

What about the “SI (CC50/IC50)” value [2] of the same compound?
The value was 11,367.49.

Which MIC90 [4] does the source give for `Fc1cccc(NCc2cn(-c3ccnc4cc(Cl)ccc34)nn2)c1` [Compound 11h, [1-(7-Chloro-4-quinolinyl)-1H-1,2,3-triazole-4-methyl]-3-flouroaniline] here?
The MIC90 was 88.72 µM (≈ 31.4 µg/mL).

And the MIC90 [4, 6]?
The MIC90 was 88 µM (≈ 31.1 µg/mL).

What about the CC50 [1] of the same compound?
The CC50 was 25.5 µM.

And the IC50 [2, 5]?
Its IC50 is 0.0103 µM.

What about the IC50 [2, 7] of the same compound?
The IC50 was 0.0103 µM.

And the “SI (CC50/IC50)” value [2]?
Its value is 2472.87.

What does the source list for `O=[N+]([O-])c1cccc(NCc2cn(-c3ccnc4cc(Cl)ccc34)nn2)c1` [Compound 11i, [1-(7-Chloro-4-quinolinyl)-1H-1,2,3-triazole-4-methyl]-3-nitroaniline]?
CC50 [1]: 0.00901 µM; IC50 [2, 5]: 0.17 µM; IC50 [2, 7]: 0.167 µM; SI (CC50/IC50) [2]: 0.05

With `COc1ccc(NCc2cn(-c3ccnc4cc(Cl)ccc34)nn2)cc1` [Compound 11j, [1-(7-Chloro-4-quinolinyl)-1H-1,2,3-triazole-4-methyl]-4-methoxyaniline] as the compound, how does the MIC90 [4, 6] read?
The MIC90 was 1370 µM (≈ 501 µg/mL).

And the CC50 [1]?
Its CC50 is 4 µM.

What about the IC50 [2, 5] of the same compound?
The IC50 was 180 µM.

And the “SI (CC50/IC50)” value [2]?
The value was 0.02.

With `CC[C@@H](CO)NCCN[C@@H](CC)CO` [Ethambutol, reference compound] as the compound, how does the MIC90 [4, 6] read?
The MIC90 was 9.68 µM (≈ 1.98 µg/mL).

— article PMC12114169, “Synthesis, Characterisation, Biological Evaluation and In Silico Studies of Quinoline–1,2,3-Triazole–Anilines as Potential Antitubercular and Anti-HIV Agents” (Molecules, 2025)
